Experiments:
[1] = system: LNCaP, PC-3M and DU-145 cell lines; assay: Paracellular permeability (PCP), TRITC-dextran diffusion; format: cell-based; details: 50 nM CT
Protocol: For PCP measurements, cells were grown to confluence on Transwell filters. Tetra methyl rhodamine-dextran (1 mg/ml, ˜4 kDa, Sigma) was added to the upper chamber. Fluorescence of the lower chamber medium was measured in Modulus Microplate Reader (Turner Biosystems) at various time intervals.
Whether CT produces similar effects in LNCaP, PC-3M and DU-145 cell lines, which endogenously express CTR, was examined as shown in FIG. 1A. FIGS. 9A-9B depict the effect of CT on tight junction (TJ) disruption as measured using TER and PCP in the three prostate cancer cell lines—LNCaP, PC-3M, and DU-145. Cells were serum-starved for 4 hours, then treated with and without 50 nM CT, before measuring TER as described above. In FIG. 9B, cells were treated with and without 50 nM CT, and PCP determined by diffusion of ˜4 kDa TRITC-conjugated dextran from the upper to the lower chamber in one hour. The results are expressed as μg/ml/hour of TRITC-Dextran diffused ±SEM (n=6; *p<0.05 (−CT v +CT, One way ANOVA and Newman-Keul's test)). FIG. 9C depicts effects of CT on cell invasion in the same three cell lines—PC-3M, LNCaP, and DU145. Cells were added to upper insert of invasion chambers with or without 50 nM CT, and cells that passed through the Matrigel™ barrier were counted after 48 h. The results are expressed as mean number of invaded cells per 400× field ±SEM (n=6; *p<0.05).

PC-3CTRwt cells = assay: Cell adhesion on culture dishes; format: cell-based; details: 50 nM CT, 1 hour
Protocol: Confluent cultures of PC-31-CTR cells were tested for cell adhesion after treatment with diluent (C), CT (50 nM), mPKI (myristoylated PKA inhibitory peptide (100 nM) or mPKI+CT. The number of adherent cells was determined by absorbance after 1 hour and are shown in the right graph.
To understand the significance of CT-induced, PKA-dependent disassembly of TJs in PC cell adhesion and invasion, the action of CT was examined on TER, PCP, cell adhesion and invasion in PC-3CTRwt cells in the presence/absence of mPKI. […] Similarly, mPKI abrogated the actions of CT on PCP and invasion (FIGS. 20B and 20C respectively). Next, the adhesion of PC-3CTRwt cells was examined on culture dishes.

calcitonin [CT]
PCP [1]: increased PCP
adhesion of the cells to plastic matrix (PC-3CTRwt cells): remarkable decline
